Measured values from the NIST ThermoML archive (doi:10.1021/je7002836).

Assays:
[1] = xn = mol fraction of the nth substance listed; details: 101 kPa, Liquid
[2] = molar heat capacity at constant pressure; xn = mol fraction of the nth substance listed; details: 101 kPa, Liquid

C[N+](=O)[O-] [nitromethane] + CCCC[n+]1cccc(C)c1.F[B-](F)(F)F
Details	mass density, [1] [kg/m3]	molar heat capacity at constant pressure, [2] [J/K/mol]
293.15 K, x2 = 0	1140.2	106.6
293.15 K, x2 = 0.0517	1153.4	120.3
293.15 K, x2 = 0.1038	1161.5	134.2
293.15 K, x2 = 0.1952	1170.3	159.9
293.15 K, x2 = 0.3078	1176.7	–
293.15 K, x2 = 0.3563	1178.7	205.2
293.15 K, x2 = 0.3998	1180.1	217.4
293.15 K, x2 = 0.5121	1183	249.2
293.15 K, x2 = 0.5994	1184.6	273.7
293.15 K, x2 = 0.6856	1185.8	297.7
293.15 K, x2 = 0.7863	1186.9	326.4
293.15 K, x2 = 0.8842	1187.7	353.6
293.15 K, x2 = 0.9034	1187.9	359.1
293.15 K, x2 = 0.941	1188.2	369.8
298.15 K, x2 = 0	1133.4	106.9
298.15 K, x2 = 0.0517	1147.4	120.5
298.15 K, x2 = 0.1038	1156	134.7
298.15 K, x2 = 0.1952	1165.4	160.4
298.15 K, x2 = 0.3078	1172.2	–
298.15 K, x2 = 0.3563	1174.3	206
298.15 K, x2 = 0.3998	1175.9	218.3
298.15 K, x2 = 0.5121	1179	250.2
298.15 K, x2 = 0.5994	1180.7	274.8
298.15 K, x2 = 0.6856	1182.1	299
298.15 K, x2 = 0.7863	1183.3	327.8
298.15 K, x2 = 0.8842	1184.2	355.3
298.15 K, x2 = 0.9034	1184.4	360.8
298.15 K, x2 = 0.941	1184.8	371.6
303.15 K, x2 = 0	1126.6	107.3
303.15 K, x2 = 0.0517	1141.3	120.9
303.15 K, x2 = 0.1038	1150.5	135.2
303.15 K, x2 = 0.1952	1160.4	161
303.15 K, x2 = 0.3078	1167.8	–
303.15 K, x2 = 0.3563	1170	206.9
303.15 K, x2 = 0.3998	1171.6	219.3
303.15 K, x2 = 0.5121	1175	251.4
303.15 K, x2 = 0.5994	1176.9	276.2
303.15 K, x2 = 0.6856	1178.3	300.6
303.15 K, x2 = 0.7863	1179.7	329.6
303.15 K, x2 = 0.8842	1180.7	357.3
303.15 K, x2 = 0.9034	1180.9	362.9
303.15 K, x2 = 0.941	1181.3	373.7
308.15 K, x2 = 0	1119.7	107.7
308.15 K, x2 = 0.0517	1135.3	121.3
308.15 K, x2 = 0.1038	1144.9	135.7
308.15 K, x2 = 0.1952	1155.5	161.8
308.15 K, x2 = 0.3078	1163.3	–
308.15 K, x2 = 0.3563	1165.7	208
308.15 K, x2 = 0.3998	1167.4	220.5
308.15 K, x2 = 0.5121	1171	252.8
308.15 K, x2 = 0.5994	1173.1	277.9
308.15 K, x2 = 0.6856	1174.6	302.5
308.15 K, x2 = 0.7863	1176.1	331.7
308.15 K, x2 = 0.8842	1177.2	359.7
308.15 K, x2 = 0.9034	1177.4	365.3
308.15 K, x2 = 0.941	1177.9	376.2
313.15 K, x2 = 0	1112.9	108.2
313.15 K, x2 = 0.0517	1129.2	121.9
313.15 K, x2 = 0.1038	1139.4	136.4
313.15 K, x2 = 0.1952	1150.6	162.5
313.15 K, x2 = 0.3078	1158.8	–
313.15 K, x2 = 0.3563	1161.4	209.2
313.15 K, x2 = 0.3998	1163.2	221.9
313.15 K, x2 = 0.5121	1167	254.4
313.15 K, x2 = 0.5994	1169.2	279.8
313.15 K, x2 = 0.6856	1170.9	304.6
313.15 K, x2 = 0.7863	1172.5	334.1
313.15 K, x2 = 0.8842	1173.7	362.4
313.15 K, x2 = 0.9034	1174	368.1
313.15 K, x2 = 0.941	1174.4	379
318.15 K, x2 = 0	1106	108.6
318.15 K, x2 = 0.0517	1123.1	122.4
318.15 K, x2 = 0.1038	1133.9	137.1
318.15 K, x2 = 0.1952	1145.6	163.5
318.15 K, x2 = 0.3078	1154.4	–
318.15 K, x2 = 0.3563	1157.1	210.6
318.15 K, x2 = 0.3998	1159.1	223.5
318.15 K, x2 = 0.5121	1163.1	256.3
318.15 K, x2 = 0.5994	1165.4	281.9
318.15 K, x2 = 0.6856	1167.2	307
318.15 K, x2 = 0.7863	1169	336.8
318.15 K, x2 = 0.8842	1170.3	365.5
318.15 K, x2 = 0.9034	1170.5	371.1
318.15 K, x2 = 0.941	1171	382.3
